{"source": "patent US20240083857A1", "about": "“2-Methyl-Quinazolines” (Bayer Pharma Aktiengesellschaft, priority 2017, published 2024)", "key": {"[1]": {"target": "human SOS1 (loading of human K-Ras^G12C-GDP with fluorescent GTP-analog) (Homo sapiens, UniProt Q07889)", "assay": "Biochemical assay 3: K-Ras^G12C activation assay by hSOS1 (HTRF)", "settings": "no GTP; for IC50: read-out: Assay 3 (KRAS-Activation by SOS no GTP) activity expressed as IC50"}, "[2]": {"target": "Epidermal Growth Factor Receptor (EGFR) (Homo sapiens (Human), UniProt P00533)", "sequence (P00533 25-1210)": "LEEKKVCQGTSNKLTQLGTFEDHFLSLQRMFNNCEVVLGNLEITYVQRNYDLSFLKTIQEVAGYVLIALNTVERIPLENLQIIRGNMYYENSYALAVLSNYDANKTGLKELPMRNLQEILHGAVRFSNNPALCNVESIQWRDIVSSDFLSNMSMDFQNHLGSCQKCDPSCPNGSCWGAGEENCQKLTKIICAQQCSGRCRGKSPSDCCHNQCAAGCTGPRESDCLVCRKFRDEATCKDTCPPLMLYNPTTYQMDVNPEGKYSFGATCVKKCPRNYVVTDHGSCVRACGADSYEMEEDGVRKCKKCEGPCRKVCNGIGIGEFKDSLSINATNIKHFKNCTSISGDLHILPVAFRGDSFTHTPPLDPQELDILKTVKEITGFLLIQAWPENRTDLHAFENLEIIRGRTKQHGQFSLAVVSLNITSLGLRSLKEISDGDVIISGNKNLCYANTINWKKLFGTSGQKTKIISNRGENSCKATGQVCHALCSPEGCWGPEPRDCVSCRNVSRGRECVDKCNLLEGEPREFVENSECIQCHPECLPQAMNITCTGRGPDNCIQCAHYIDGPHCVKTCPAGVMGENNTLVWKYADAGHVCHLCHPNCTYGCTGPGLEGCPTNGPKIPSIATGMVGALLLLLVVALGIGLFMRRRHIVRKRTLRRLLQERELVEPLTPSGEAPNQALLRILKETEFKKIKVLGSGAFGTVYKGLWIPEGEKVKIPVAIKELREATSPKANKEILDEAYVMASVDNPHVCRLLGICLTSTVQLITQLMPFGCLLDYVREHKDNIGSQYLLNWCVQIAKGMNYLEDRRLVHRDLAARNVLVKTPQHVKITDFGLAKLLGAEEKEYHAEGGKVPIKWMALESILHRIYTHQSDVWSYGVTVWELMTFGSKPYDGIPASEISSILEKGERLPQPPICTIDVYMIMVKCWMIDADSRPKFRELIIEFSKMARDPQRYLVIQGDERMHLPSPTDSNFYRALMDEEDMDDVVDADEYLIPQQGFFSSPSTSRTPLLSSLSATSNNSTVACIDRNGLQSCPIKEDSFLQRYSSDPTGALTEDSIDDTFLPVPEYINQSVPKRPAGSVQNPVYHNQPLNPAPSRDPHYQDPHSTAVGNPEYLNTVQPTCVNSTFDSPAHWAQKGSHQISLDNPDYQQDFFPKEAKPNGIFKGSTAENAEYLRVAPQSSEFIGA", "assay": "EGFR kinase assay (TR-FRET)", "format": "biochemical", "settings": "read-out: EGFR kinase inhibition IC50", "summary_of_the_method": "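EGFR purified from A431 cells was preincubated with compound 15 min at 22° C in pH 7.0 Hepes buffer with MgCl2, MnCl2 and vanadate before reaction with a biotinylated peptide. After EDTA stop, phosphopeptide was detected by TR-FRET (anti-phosphotyrosine Tb-cryptate, streptavidin-XL665) as the 665/620 nm emission ratio.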"}}, "note": "Where two headings read alike, the source gives them in different places."}
{"smiles": "COc1cc2nc(C)nc(N[C@H](C)c3ccc(-c4ccccc4CCN)s3)c2cc1OC", "note": "(stereo in doubt) [Example 357, N-[1-{5-[2-(2-aminoethyl)phenyl]thiophen-2-yl}ethyl]-6,7-dimethoxy-2-methylquinazolin-4-amine]", "values": [{"measurement": "IC50", "setting": "[1]", "value": 0.0692, "unit": "µM"}, {"measurement": "IC50", "setting": "[2]; values given in μM", "value": "> 20", "unit": "µM"}]}
{"smiles": "COc1cc2nc(C)nc(NC(C)c3ccc(-c4ccccc4[C@@H](C)NC(=O)OC(C)(C)C)s3)c2cc1OC", "note": "(stereo in doubt) [Example 358, tert-butyl {1-[2-(5-{1-[(6,7-dimethoxy-2-methylquinazolin-4-yl)amino]ethyl}thiophen-2-yl)phenyl]ethyl}carbamate]", "values": [{"measurement": "IC50", "setting": "[1]", "value": 2.45, "unit": "µM"}, {"measurement": "IC50", "setting": "[2]; values given in μM", "value": "> 20", "unit": "µM"}]}
{"smiles": "COc1cc2nc(C)nc(NC(C)c3ccc(-c4ccccc4[C@@H](C)N)s3)c2cc1OC", "note": "(stereo in doubt) [Example 359, N-[1-(5-{2-[1-aminoethyl]phenyl}thiophen-2-yl)ethyl]-6,7-dimethoxy-2-methylquinazolin-4-amine]", "values": [{"measurement": "IC50", "setting": "[1]", "value": 0.299, "unit": "µM"}, {"measurement": "IC50", "setting": "[2]; values given in μM", "value": "> 20", "unit": "µM"}]}
{"smiles": "COc1cc2nc(C)nc(NC(C)c3ccc(-c4ccccc4[C@H](C)N)s3)c2cc1OC", "note": "(stereo in doubt) [Example 360, N-[1-(5-{2-[1-aminoethyl]phenyl}thiophen-2-yl)ethyl]-6,7-dimethoxy-2-methylquinazolin-4-amine]", "values": [{"measurement": "IC50", "setting": "[1]", "value": 0.19, "unit": "µM"}, {"measurement": "IC50", "setting": "[2]; values given in μM", "value": "> 20", "unit": "µM"}]}
{"smiles": "COc1cc2nc(C)nc(NC(C)c3cccc4c3CCO4)c2cc1OC", "note": "(centres unmarked) [Example 22, N-[1-(2,3-dihydro-1-benzofuran-4-yl)ethyl]-6,7-dimethoxy-2-methylquinazolin-4-amine]", "values": [{"measurement": "IC50", "setting": "[1]", "value": 0.589, "unit": "µM"}, {"measurement": "IC50", "setting": "[2]; values given in μM", "value": "> 20", "unit": "µM"}]}
{"smiles": "COc1cc2nc(C)nc(NC(C)c3ccc4c(c3)OCO4)c2cc1OC", "note": "(centres unmarked) [Example 23, N-[1-(1,3-benzodioxol-5-yl)ethyl]-6,7-dimethoxy-2-methylquinazolin-4-amine]", "values": [{"measurement": "IC50", "setting": "[1]", "value": 8.62, "unit": "µM"}, {"measurement": "IC50", "setting": "[2]; values given in μM", "value": "> 20", "unit": "µM"}]}
{"smiles": "COc1cc2nc(C)nc(NC(C)c3ccc4c(c3)CCO4)c2cc1OC", "note": "(centres unmarked) [Example 24, N-[1-(2,3-dihydro-1-benzofuran-5-yl)ethyl]-6,7-dimethoxy-2-methylquinazolin-4-amine]", "values": [{"measurement": "IC50", "setting": "[1]", "value": 2.45, "unit": "µM"}, {"measurement": "IC50", "setting": "[2]; values given in μM", "value": "> 20", "unit": "µM"}]}
{"smiles": "COc1cc2nc(C)nc(NC(C)c3ccc4c(c3)CCCC4)c2cc1OC", "note": "(centres unmarked) [Example 25, 6,7-dimethoxy-2-methyl-N-[1-(5,6,7,8-tetrahydronaphthalen-2-yl)ethyl]quinazolin-4-amine]", "values": [{"measurement": "IC50", "setting": "[1]", "value": 1.5, "unit": "µM"}, {"measurement": "IC50", "setting": "[2]; values given in μM", "value": "> 20", "unit": "µM"}]}
{"smiles": "COc1cc2nc(C)nc(NC(C)c3c(C)nc4ccccn34)c2cc1OC", "note": "(centres unmarked) [Example 26, 6,7-dimethoxy-2-methyl-N-[1-(2-methylimidazo[1,2-a]pyridin-3-yl)ethyl]quinazolin-4-amine]", "values": [{"measurement": "IC50", "setting": "[1]", "value": 6.96, "unit": "µM"}, {"measurement": "IC50", "setting": "[2]; values given in μM", "value": "> 20", "unit": "µM"}]}
{"smiles": "COc1cc2nc(C)nc(NC(C)c3csc4ccccc34)c2cc1OC", "note": "(centres unmarked) [Example 27, N-[1-(1-benzothiophen-3-yl)ethyl]-6,7-dimethoxy-2-methylquinazolin-4-amine]", "values": [{"measurement": "IC50", "setting": "[1]", "value": 0.498, "unit": "µM"}, {"measurement": "IC50", "setting": "[2]; values given in μM", "value": "> 20", "unit": "µM"}]}
{"smiles": "Cc1nc(N[C@H](C)c2ccccc2)c2cc(N=S(C)(C)=O)ccc2n1", "note": "[Example 30, 6-{[dimethyl(oxido)-lambda6-sulfanylidene]amino}-2-methyl-N-[(1R)-1-phenylethyl]quinazolin-4-amine]", "values": [{"measurement": "IC50", "setting": "[1]", "value": 2.91, "unit": "µM"}, {"measurement": "IC50", "setting": "[2]; values given in μM", "value": "> 20", "unit": "µM"}]}
{"smiles": "Cc1nc(N[C@H](C)c2ccc(F)cc2)c2cc(N=S(C)(C)=O)ccc2n1", "note": "[Example 32, 6-{[dimethyl(oxido)-lambda6-sulfanylidene]amino}-N-[(1R)-1-(4-fluorophenyl)ethyl]-2-methylquinazolin-4-amine]", "values": [{"measurement": "IC50", "setting": "[1]", "value": 2.59, "unit": "µM"}, {"measurement": "IC50", "setting": "[2]; values given in μM", "value": "> 20", "unit": "µM"}]}
{"smiles": "COc1cc2nc(C)nc(NC(C)c3ccc4c(c3)NC(=O)CO4)c2cc1OC", "note": "(centres unmarked) [Example 34, 6-{1-[(6,7-dimethoxy-2-methylquinazolin-4-yl)amino]ethyl}-2H-1,4-benzoxazin-3(4H)-one]", "values": [{"measurement": "IC50", "setting": "[1]", "value": 16.8, "unit": "µM"}, {"measurement": "IC50", "setting": "[2]; values given in μM", "value": "> 20", "unit": "µM"}]}
{"smiles": "COc1ccc2cc(C(C)Nc3nc(C)nc4cc(OC)c(OC)cc34)ccc2c1", "note": "(centres unmarked) [Example 35, 6,7-dimethoxy-N-[1-(6-methoxy-2-naphthyl)ethyl]-2-methylquinazolin-4-amine]", "values": [{"measurement": "inhibition at 20 µM", "setting": "[1]; read-out: Assay 3 (KRAS-Activation by SOS no GTP) activity expressed as % inhibition at 20 μM, at 20 μM", "value": 48, "unit": "%"}, {"measurement": "IC50", "setting": "[2]; values given in μM", "value": "> 20", "unit": "µM"}]}
{"smiles": "COc1cc2nc(C)nc(N[C@H](C)c3cccc(-c4ccc(O)nc4)c3)c2cc1OC", "note": "[Example 68, 5-(3-{(1R)-1-[(6,7-dimethoxy-2-methylquinazolin-4-yl)amino]ethyl}phenyl)pyridin-2-ol]", "values": [{"measurement": "IC50", "setting": "[1]", "value": 0.471, "unit": "µM"}, {"measurement": "IC50", "setting": "[2]; unit inferred", "value": 6.92, "unit": "µM"}]}
{"smiles": "COc1cc2nc(C)nc(N[C@H](C)c3cccc(-n4cccn4)c3)c2cc1OC", "note": "[Example 341, 6,7-dimethoxy-2-methyl-N-{(1R)-1-[3-(1H-pyrazol-1-yl)phenyl]ethyl}quinazolin-4-amine]", "values": [{"measurement": "IC50", "setting": "[1]", "value": 12.2, "unit": "µM"}, {"measurement": "IC50", "setting": "[2]; values given in μM", "value": "> 20", "unit": "µM"}]}
{"smiles": "COc1cc2nc(C)nc(N[C@H](C)c3cccc(Br)c3)c2cc1OCc1ccccc1", "note": "[Example 343, 6-(benzyloxy)-N-[(1R)-1-(3-bromophenyl)ethyl]-7-methoxy-2-methylquinazolin-4-amine]", "values": [{"measurement": "IC50", "setting": "[1]", "value": 4.33, "unit": "µM"}, {"measurement": "IC50", "setting": "[2]; values given in μM", "value": "> 20", "unit": "µM"}]}
{"smiles": "COc1cc2nc(C)nc(N[C@H](C)c3cccc(-c4cn[nH]c4)c3)c2cc1OCc1ccccc1", "note": "[Example 344, 6-(benzyloxy)-7-methoxy-2-methyl-N-{(1R)-1-[3-(1H-pyrazol-4-yl)phenyl]ethyl}-quinazolin-4-amine]", "values": [{"measurement": "IC50", "setting": "[1]", "value": 1.86, "unit": "µM"}, {"measurement": "IC50", "setting": "[2]; values given in μM", "value": "> 20", "unit": "µM"}]}
{"smiles": "COc1cc2nc(C)nc(N[C@H](C)c3cccc(-c4cn[nH]c4)c3)c2cc1O", "note": "[Example 345, 7-methoxy-2-methyl-4-({(1R)-1-[3-(1H-pyrazol-4-yl)phenyl]ethyl}amino)quinazolin-6-ol]", "values": [{"measurement": "IC50", "setting": "[1]", "value": 29.4, "unit": "µM"}, {"measurement": "IC50", "setting": "[2]; values given in μM", "value": "> 20", "unit": "µM"}]}
{"smiles": "COc1cc2nc(C)nc(N[C@H](C)c3cccc(-c4cn[nH]c4)c3)c2cc1OCC1CC1", "note": "[Example 346, 6-(cyclopropylmethoxy)-7-methoxy-2-methyl-N-{(1R)-1-[3-(1H-pyrazol-4-yl)phenyl]ethyl}quinazolin-4-amine]", "values": [{"measurement": "IC50", "setting": "[1]", "value": 0.576, "unit": "µM"}, {"measurement": "IC50", "setting": "[2]; values given in μM", "value": "> 20", "unit": "µM"}]}
{"smiles": "COCCOc1cc2c(N[C@H](C)c3cccc(-c4cn[nH]c4)c3)nc(C)nc2cc1OC", "note": "[Example 348, 7-methoxy-6-(2-methoxyethoxy)-2-methyl-N-{(1R)-1-[3-(1H-pyrazol-4-yl)phenyl]-ethyl}quinazolin-4-amine]", "values": [{"measurement": "IC50", "setting": "[1]", "value": 0.753, "unit": "µM"}, {"measurement": "IC50", "setting": "[2]; values given in μM", "value": "> 20", "unit": "µM"}]}
{"smiles": "CC[C@@H](O)c1ccccc1-c1ccc(C(C)Nc2nc(C)nc3cc(OC)c(OC)cc23)s1", "note": "(stereo partly drawn) [Example 349, (1R)-1-[2-(5-{1-[(6,7-dimethoxy-2-methylquinazolin-4-yl)amino]ethyl}thiophen-2-yl)phenyl]propan-1-ol]", "values": [{"measurement": "IC50", "setting": "[1]", "value": 0.74, "unit": "µM"}, {"measurement": "IC50", "setting": "[2]; values given in μM", "value": "> 20", "unit": "µM"}]}
{"smiles": "CCCCOc1cc2c(N[C@H](C)c3cccc(-c4cn[nH]c4)c3)nc(C)nc2cc1OC", "note": "[Example 350, 6-butoxy-7-methoxy-2-methyl-N-{(1R)-1-[3-(1H-pyrazol-4-yl)phenyl]ethyl}quinazolin-4-amine]", "values": [{"measurement": "IC50", "setting": "[1]", "value": 0.85, "unit": "µM"}, {"measurement": "IC50", "setting": "[2]; values given in μM", "value": "> 20", "unit": "µM"}]}
{"smiles": "COc1cc2nc(C)nc(N[C@H](C)c3cccc(-c4cn[nH]c4)c3)c2cc1OCCC(C)C", "note": "[Example 351, 7-methoxy-2-methyl-6-(3-methylbutoxy)-N-{(1R)-1-[3-(1H-pyrazol-4-yl)phenyl]ethyl}quinazolin-4-amine]", "values": [{"measurement": "IC50", "setting": "[1]", "value": 1.31, "unit": "µM"}, {"measurement": "IC50", "setting": "[2]; values given in μM", "value": "> 20", "unit": "µM"}]}
{"smiles": "COc1cc2nc(C)nc(NC(C)c3ccc(-c4ccccc4CCNC(=O)OC(C)(C)C)s3)c2cc1OC", "note": "(centres unmarked) [Example 352, tert-butyl {2-[2-(5-{1-[(6,7-dimethoxy-2-methylquinazolin-4-yl)amino]ethyl}thiophen-2-yl)phenyl]ethyl}carbamate]", "values": [{"measurement": "IC50", "setting": "[1]", "value": 18.2, "unit": "µM"}, {"measurement": "IC50", "setting": "[2]; values given in μM", "value": "> 20", "unit": "µM"}]}
